For 12 compounds, IC50 results are on record in patent US20260022142A1, “MACROCYCLIC IMMUNOMODULATORS” (Bristol-Myers Squibb Company, priority 2022, published 2026).

Bridge positions count the residues as written; N and C are the ends. Square brackets hold non-standard residues; d marks the D form. Peptide text beside a SMILES is read from it. * marks the point of attachment. Tyr(3,5-F2) = N[C@@H](Cc1cc(F)c(O)c(F)c1)C(=O)O; Tyr(3-Cl) = N[C@@H](Cc1ccc(O)c(Cl)c1)C(=O)O; Bip = N[C@@H](Cc1ccc(-c2ccccc2)cc1)C(=O)O; Phe(3-Me) = Cc1cccc(C[C@H](N)C(=O)O)c1; Phe(4-Me) = Cc1ccc(C[C@H](N)C(=O)O)cc1; mTyr = N[C@@H](Cc1cccc(O)c1)C(=O)O; 4Pal = N[C@@H](Cc1ccncc1)C(=O)O; Cha = N[C@@H](CC1CCCCC1)C(=O)O; dDab = NCC[C@@H](N)C(=O)O; Carboxymethyl = O=C(O)C*; Orn = NCCC[C@H](N)C(=O)O; Aun = NCCCCCCCCCCC(=O)O; Dab = NCC[C@H](N)C(=O)O; Dap = NC[C@H](N)C(=O)O; AEEA = NCCOCCOCC(=O)O; Ac3c = NC1(C(=O)O)CC1

The IC50 is the concentration that gives 50% inhibition.

T1 sequence (Q15116 25-288): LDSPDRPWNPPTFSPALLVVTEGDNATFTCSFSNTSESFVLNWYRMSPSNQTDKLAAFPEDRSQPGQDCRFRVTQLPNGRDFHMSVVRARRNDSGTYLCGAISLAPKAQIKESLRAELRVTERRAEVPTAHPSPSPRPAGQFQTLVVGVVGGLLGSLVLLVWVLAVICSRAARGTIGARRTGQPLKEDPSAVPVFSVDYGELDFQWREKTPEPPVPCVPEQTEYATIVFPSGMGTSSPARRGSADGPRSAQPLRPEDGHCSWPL

This assay addresses T1, PD-1/PD-L1 interaction (PE-labeled human PD-L1-Ig binding to Jurkat cell line over-expressing human PD-1) (Homo sapiens, UniProt Q15116).
T1 construct: expressed in transfected cells; host or cells: Jurkat
Briefly: Jurkat-PD-1 Cell Binding High-Content Screening Assay (CBA). Format: cell-based. The settings on record: Jurkat cell line over-expressing human PD-1; PE-labeled PD-L1-Ig 20 nM final; read-out: Jurkat hPD1-PDL1 IC50. Put shortly: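 First, compound is added to PD-1-expressing Jurkat cells in serum-containing DMEM and left 2 h at 37° C. Next, PE-conjugated PD-L1-Ig is introduced at 20 nM final concentration for 1 hour. Finally, cells are fixed in 4% paraformaldehyde with Hoechst 33342, washed and imaged.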
In the case of `Cc1cccc(C[C@@H]2NC(=O)[C@H](CC(=O)O)NC(=O)[C@H](Cc3ccc(OCC(=O)O)cc3)NC(=O)[C@H](CN)NC(=O)CSC[C@@H](C(=O)N[C@@H](CCN)C(=O)NCCOCCOCC(=O)NCCCCCCCCCCC(=O)O)NC(=O)[C@H](CCCN)NC(=O)[C@H](C(C)C)NC(=O)[C@H](CC3CCCCC3)NC(=O)[C@H](CCN)NC(=O)[C@@H](CC(C)C)NC(=O)[C@H](CCCN)NC(=O)[C@H](Cc3ccc(O)cc3)NC(=O)[C@H](Cc3ccc(-c4ccccc4)cc3)NC(=O)[C@H](Cc3ccncc3)NC2=O)c1` [Compound 2073] ({CH2CO}-[Dap]Y(Carboxymethyl)D[Phe(3-Me)][4Pal][Bip]Y[Orn][dL][Dab][Cha]V[Orn]C[Dab][AEEA][Aun]-OH; thioether N-14), the IC50 was determined as 8.9 nM. The result for `Cc1ccc(C[C@@H]2NC(=O)[C@H](Cc3cccc(C)c3)NC(=O)[C@H](CC(=O)O)NC(=O)[C@H](Cc3ccc(OCC(=O)O)cc3)NC(=O)[C@H](CN)NC(=O)CSC[C@@H](C(=O)N[C@@H](CCN)C(=O)NCCOCCOCC(=O)NCCCCCCCCCCC(=O)O)NC(=O)[C@H](CCCN)NC(=O)[C@H](C(C)C)NC(=O)[C@H](CC3CCCCC3)NC(=O)[C@H](CCN)NC(=O)[C@@H](CC(C)C)NC(=O)[C@H](CCCN)NC(=O)[C@H](Cc3ccc(O)cc3)NC(=O)[C@H](Cc3ccc(-c4ccccc4)cc3)NC2=O)cc1` [Compound 2074] ({CH2CO}-[Dap]Y(Carboxymethyl)D[Phe(3-Me)][Phe(4-Me)][Bip]Y[Orn][dL][Dab][Cha]V[Orn]C[Dab][AEEA][Aun]-OH; thioether N-14) reads 5.5 nM; that for `Cc1cccc(C[C@@H]2NC(=O)[C@H](CC(=O)O)NC(=O)[C@H](Cc3ccc(OCC(=O)O)cc3)NC(=O)[C@H](CN)NC(=O)CSC[C@@H](C(=O)N[C@@H](CCN)C(=O)NCCOCCOCC(=O)NCCCCCCCCCCC(=O)O)NC(=O)[C@H](CCCN)NC(=O)[C@H](C(C)C)NC(=O)[C@H](CC3CCCCC3)NC(=O)[C@H](CCN)NC(=O)[C@@H](CC(C)C)NC(=O)[C@H](CCCN)NC(=O)[C@H](Cc3ccc(O)cc3)NC(=O)[C@H](Cc3ccc(-c4ccccc4)cc3)NC(=O)[C@H](Cc3ccc(O)c(Cl)c3)NC2=O)c1` [Compound 2075] ({CH2CO}-[Dap]Y(Carboxymethyl)D[Phe(3-Me)][Tyr(3-Cl)][Bip]Y[Orn][dL][Dab][Cha]V[Orn]C[Dab][AEEA][Aun]-OH; thioether N-14), 14.3 nM. The figure for `Cc1cccc(C[C@@H]2NC(=O)[C@H](CC(=O)O)NC(=O)[C@H](Cc3ccc(OCC(=O)O)cc3)NC(=O)[C@H](CN)NC(=O)CSC[C@@H](C(=O)N[C@@H](CCN)C(=O)NCCOCCOCC(=O)NCCCCCCCCCCC(=O)O)NC(=O)[C@H](CCCN)NC(=O)[C@H](C(C)C)NC(=O)[C@H](CC3CCCCC3)NC(=O)[C@H](CCN)NC(=O)[C@@H](CC(C)C)NC(=O)[C@H](CCCN)NC(=O)[C@H](Cc3ccc(O)cc3)NC(=O)[C@H](Cc3ccc(-c4ccccc4)cc3)NC(=O)[C@H](Cc3cc(F)c(O)c(F)c3)NC2=O)c1` [Compound 2076] ({CH2CO}-[Dap]Y(Carboxymethyl)D[Phe(3-Me)][Tyr(3,5-F2)][Bip]Y[Orn][dL][Dab][Cha]V[Orn]C[Dab][AEEA][Aun]-OH; thioether N-14) is 8.4 nM; for `Cc1cccc(C[C@@H]2NC(=O)[C@H](CC(=O)O)NC(=O)[C@H](Cc3ccc(OCC(=O)O)cc3)NC(=O)[C@H](CN)NC(=O)CSC[C@@H](C(=O)NC3(C(=O)NCCOCCOCC(=O)NCCCCCCCCCCC(=O)O)CC3)NC(=O)[C@H](CCCN)NC(=O)[C@H](C(C)C)NC(=O)[C@H](CC3CCCCC3)NC(=O)[C@H](CCN)NC(=O)[C@@H](CC(C)C)NC(=O)[C@H](CCCN)NC(=O)[C@H](Cc3ccc(O)cc3)NC(=O)[C@H](Cc3ccc(-c4ccccc4)cc3)NC(=O)[C@H](Cc3ccc(O)cc3)NC2=O)c1` [Compound 2077] ({CH2CO}-[Dap]Y(Carboxymethyl)D[Phe(3-Me)]Y[Bip]Y[Orn][dL][Dab][Cha]V[Orn]C[Ac3c][AEEA][Aun]-OH; thioether N-14) it is 6.3 nM. The figure for `Cc1cccc(C[C@@H]2NC(=O)[C@H](CC(=O)O)NC(=O)[C@H](Cc3ccc(OCC(=O)O)cc3)NC(=O)[C@H](Cc3ccc(OCC(=O)O)cc3)NC(=O)CSC[C@@H](C(=O)NC3(C(=O)NCCOCCOCC(=O)NCCCCCCCCCCC(=O)O)CC3)NC(=O)[C@H](CCCN)NC(=O)[C@H](C(C)C)NC(=O)[C@H](CC3CCCCC3)NC(=O)[C@H](CCN)NC(=O)[C@@H](CC(C)C)NC(=O)[C@H](CCCN)NC(=O)[C@H](Cc3ccc(O)cc3)NC(=O)[C@H](Cc3ccc(-c4ccccc4)cc3)NC(=O)[C@H](Cc3ccc(O)cc3)NC2=O)c1` [Compound 2078] ({CH2CO}-Y(Carboxymethyl)Y(Carboxymethyl)D[Phe(3-Me)]Y[Bip]Y[Orn][dL][Dab][Cha]V[Orn]C[Ac3c][AEEA][Aun]-OH; thioether N-14) is 3.9 nM; for `CC(C)C[C@H]1NC(=O)[C@H](CCCN)NC(=O)[C@H](Cc2ccc(O)cc2)NC(=O)[C@H](Cc2ccc(-c3ccccc3)cc2)NC(=O)[C@H](Cc2ccc(O)cc2)NC(=O)[C@H](Cc2cccc(O)c2)NC(=O)[C@H](CC(=O)O)NC(=O)[C@H](Cc2ccc(OCC(=O)O)cc2)NC(=O)[C@H](CN)NC(=O)CSC[C@@H](C(=O)N[C@@H](CCN)C(=O)NCCCCCCCCCCC(=O)O)NC(=O)[C@@H](CCN)NC(=O)[C@H](C(C)C)NC(=O)[C@H](CC2CCCCC2)NC(=O)[C@H](CCN)NC1=O` [Compound 2079] ({CH2CO}-[Dap]Y(Carboxymethyl)D[mTyr]Y[Bip]Y[Orn][dL][Dab][Cha]V[dDab]C[Dab][Aun]-OH; thioether N-14) it is 245 nM; for `CC(C)C[C@H]1NC(=O)[C@H](CCN)NC(=O)[C@H](Cc2ccc(O)cc2)NC(=O)[C@H](Cc2ccc(-c3ccccc3)cc2)NC(=O)[C@H](Cc2ccc(O)cc2)NC(=O)[C@H](Cc2cccc(O)c2)NC(=O)[C@H](CC(=O)O)NC(=O)[C@H](Cc2ccc(OCC(=O)O)cc2)NC(=O)[C@H](CN)NC(=O)CSC[C@@H](C(=O)N[C@@H](CCN)C(=O)NCCCCCCCCCCC(=O)O)NC(=O)[C@@H](CCN)NC(=O)[C@H](C(C)C)NC(=O)[C@H](CC2CCCCC2)NC(=O)[C@H](CCN)NC1=O` [Compound 2080] ({CH2CO}-[Dap]Y(Carboxymethyl)D[mTyr]Y[Bip]Y[Dab][dL][Dab][Cha]V[dDab]C[Dab][Aun]-OH; thioether N-14) it is 218 nM. Take `Cc1cccc(C[C@@H]2NC(=O)[C@H](CC(=O)O)NC(=O)[C@H](Cc3ccc(OCC(=O)O)cc3)NC(=O)[C@H](CCCNC(=N)N)NC(=O)CSC[C@@H](C(=O)N[C@@H](CCN)C(=O)NCCCCCCCCCCC(=O)O)NC(=O)[C@H]([C@@H](C)O)NC(=O)[C@H](C(C)C)NC(=O)[C@H](CC3CCCCC3)NC(=O)[C@H](CCN)NC(=O)[C@@H](CC(C)C)NC(=O)[C@H](CCCN)NC(=O)[C@H](Cc3ccc(OCC(=O)O)cc3)NC(=O)[C@H](Cc3ccc(-c4ccccc4)cc3)NC(=O)[C@H](Cc3ccc(O)cc3)NC2=O)c1` [Compound 2081] ({CH2CO}-RY(Carboxymethyl)D[Phe(3-Me)]Y[Bip]Y(Carboxymethyl)[Orn][dL][Dab][Cha]VTC[Dab][Aun]-OH; thioether N-14): the IC50 is 11.7 nM. The figure for `Cc1cccc(C[C@@H]2NC(=O)[C@H](CC(=O)O)NC(=O)[C@H](Cc3ccc(OCC(=O)O)cc3)NC(=O)[C@H](CCCNC(=N)N)NC(=O)CSC[C@@H](C(=O)N[C@@H](CCN)C(=O)NCCCCCCCCCCC(=O)O)NC(=O)[C@H](CO)NC(=O)[C@H](C(C)C)NC(=O)[C@H](CC3CCCCC3)NC(=O)[C@H](CCN)NC(=O)[C@@H](CC(C)C)NC(=O)[C@H](CCCN)NC(=O)[C@H](Cc3ccc(OCC(=O)O)cc3)NC(=O)[C@H](Cc3ccc(-c4ccccc4)cc3)NC(=O)[C@H](Cc3ccc(O)cc3)NC2=O)c1` [Compound 2082] ({CH2CO}-RY(Carboxymethyl)D[Phe(3-Me)]Y[Bip]Y(Carboxymethyl)[Orn][dL][Dab][Cha]VSC[Dab][Aun]-OH; thioether N-14) is 22.7 nM; for `Cc1cccc(C[C@@H]2NC(=O)[C@H](CC(=O)O)NC(=O)[C@H](Cc3ccc(OCC(=O)O)cc3)NC(=O)[C@H](CCCNC(=N)N)NC(=O)CSC[C@@H](C(=O)N[C@@H](CCN)C(=O)NCCCCCCCCCCC(=O)O)NC(=O)[C@H](CO)NC(=O)[C@H](C(C)C)NC(=O)[C@H](CC3CCCCC3)NC(=O)[C@H](CCN)NC(=O)[C@@H](CC(C)C)NC(=O)[C@H](CCCN)NC(=O)[C@H](Cc3ccc(OCC(=O)O)cc3)NC(=O)[C@H](Cc3ccc(-c4ccccc4)cc3)NC(=O)[C@H](Cc3ccc(OCC(=O)O)cc3)NC2=O)c1` [Compound 2083] ({CH2CO}-RY(Carboxymethyl)D[Phe(3-Me)]Y(Carboxymethyl)[Bip]Y(Carboxymethyl)[Orn][dL][Dab][Cha]VSC[Dab][Aun]-OH; thioether N-14) it is 8.3 nM.

`Cc1cccc(C[C@@H]2NC(=O)[C@H](CC(=O)O)NC(=O)[C@H](Cc3ccc(OCC(=O)O)cc3)NC(=O)[C@H](CN)NC(=O)CSC[C@@H](C(=O)N[C@@H](CCN)C(=O)NCCCCCCCCCCC(=O)O)NC(=O)[C@H](CO)NC(=O)[C@H](C(C)C)NC(=O)[C@H](CC3CCCCC3)NC(=O)[C@H](CCN)NC(=O)[C@@H](CC(C)C)NC(=O)[C@H](CCCN)NC(=O)[C@H](Cc3ccc(OCC(=O)O)cc3)NC(=O)[C@H](Cc3ccc(-c4ccccc4)cc3)NC(=O)[C@H](Cc3ccc(OCC(=O)O)cc3)NC2=O)c1` [Compound 2084] ({CH2CO}-[Dap]Y(Carboxymethyl)D[Phe(3-Me)]Y(Carboxymethyl)[Bip]Y(Carboxymethyl)[Orn][dL][Dab][Cha]VSC[Dab][Aun]-OH; thioether N-14): the IC50 stood at 12.6 nM.
